Assay results from patent publication US12048783B2, “2,4-disubstituted pyridines as malodor counteracting ingredients” (FIRMENICH SA, priority 2017, dated 2024).

Target: T1, OR4S2 (Homo sapiens, UniProt Q8NH73)
T1 construct: expressed in transfected cells
T1 sequence (Q8NH73 1-311): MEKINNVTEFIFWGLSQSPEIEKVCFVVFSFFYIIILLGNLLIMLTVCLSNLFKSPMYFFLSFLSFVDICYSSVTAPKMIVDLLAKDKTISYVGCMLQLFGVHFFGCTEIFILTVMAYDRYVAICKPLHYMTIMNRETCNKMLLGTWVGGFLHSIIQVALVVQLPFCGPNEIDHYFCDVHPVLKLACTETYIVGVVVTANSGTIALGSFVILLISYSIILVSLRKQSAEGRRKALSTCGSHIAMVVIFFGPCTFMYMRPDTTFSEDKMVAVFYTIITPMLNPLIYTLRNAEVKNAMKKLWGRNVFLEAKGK
Assay: Inhibition of malodor compound induced olfactory receptor activity in stable cell lines
Type: cell-based
Conditions: inhibition of OR4S2 activity in presence of a single activating concentration of DMTS

EC50: 90.3 µM
SMILES: CCCCCc1cc(C)ccn1
